# According to ChEMBL document CHEMBL1649229, “Efficacy of high doses of daptomycin versus alternative therapies against experimental foreign-body infection by methicillin-resistant Staphylococcus aureus” (Antimicrob Agents Chemother, 2009):
# Activity calls are given as the source filed them. The calls are words filed in the database; no cut-off is given here.
# Tests used:
# [1] = system: Staphylococcus aureus; test: Antimicrobial activity against log-phase methicillin-resistant Staphylococcus aureus HUSA 304 by M7-A6 method; assay type: functional
# [2] = system: Staphylococcus aureus; test: Antimicrobial activity against methicillin-resistant Staphylococcus aureus HUSA 304 infected in Wistar rat assessed as decrease in bacterial load in tissue cage fluid at 35 mg/kg, ip administered every 12 hrs for 7 days measured on day 11 post treatment; assay type: functional; conditions: route intraperitoneal
# [3] = system: Staphylococcus aureus; test: Antimicrobial activity against methicillin-resistant Staphylococcus aureus HUSA 304 infected in Wistar rat assessed as decrease in bacterial load in tissue cage fluid at 35 mg/kg, ip administered every 12 hrs for 7 days measured on day 8 post treatment; assay type: functional; conditions: route intraperitoneal
# [4] = system: Staphylococcus aureus; test: Bactericidal activity against log-phase methicillin-resistant Staphylococcus aureus HUSA 304 after 24 hrs by time kill analysis in presence of 50 mg/L calcium ions; assay type: functional; conditions: HUSA 304, 24 h
# [5] = system: Staphylococcus aureus; test: Bactericidal activity against stationary-phase methicillin-resistant Staphylococcus aureus HUSA 304 after 24 hrs by time kill analysis in presence of 50 mg/L calcium ions; assay type: functional; conditions: HUSA 304, 24 h
# [6] = AUC (0 to 24 hrs) in serum of human infected with methicillin-resistant Staphylococcus aureus HUSA 304 at 6 mg/kg/day, […]; assay type: ADME, organism-based; parameters: time < 24 hr, dose 6 mg/kg/day
# [7] = AUC (0 to infinity) in serum of Wistar rat infected with methicillin-resistant Staphylococcus aureus HUSA 304 at 45 mg/kg/day, ip for 7 days; assay type: ADME, organism-based; parameters: dose 45 mg/kg/day, time infinity, route intraperitoneal
# [8] = Ratio of AUC (0 to infinity) in tissue cage fluid of Wistar rat infected with methicillin-resistant Staphylococcus aureus HUSA 304 at 45 mg/kg/day, ip to MIC for methicillin-resistant Staphylococcus aureus HUSA 304; assay type: functional; conditions: route intraperitoneal
# [9] = AUC (0 to infinity) in tissue cage fluid of Wistar rat infected with methicillin-resistant Staphylococcus aureus HUSA 304 at 45 mg/kg/day, ip; assay type: ADME, organism-based; parameters: dose 45 mg/kg/day, time infinity, route intraperitoneal
# [10] = system: Staphylococcus aureus; test: Antimicrobial activity against log-phase methicillin-resistant Staphylococcus aureus HUSA 304 selected on 1 to 5 ug/ml of compound measured after 5 days by M7-A6 method in presence of 50 mg/L calcium ions; assay type: functional; conditions: HUSA 304, 120 h
# [11] = Cmax in serum of Wistar rat infected with methicillin-resistant Staphylococcus aureus HUSA 304 at 70 mg/kg/day, ip for 7 days; assay type: ADME, organism-based; parameters: dose 70 mg/kg/day, route intraperitoneal
# [12] = Cmax in tissue cage fluid of Wistar rat infected with methicillin-resistant Staphylococcus aureus HUSA 304 at 100 mg/kg/day, ip; assay type: ADME, organism-based, Interstitial fluid; parameters: dose 100 mg/kg/day, route intraperitoneal
# [13] = AUC (0 to infinity) in tissue cage fluid of Wistar rat infected with methicillin-resistant Staphylococcus aureus HUSA 304 at 70 mg/kg/day, ip; assay type: ADME, organism-based; parameters: dose 70 mg/kg/day, time infinity, route intraperitoneal
# [14] = Ratio of Cmax in tissue cage fluid of Wistar rat infected with methicillin-resistant Staphylococcus aureus HUSA 304 at 45 mg/kg/day, ip to MIC for methicillin-resistant Staphylococcus aureus HUSA 304; assay type: functional; conditions: route intraperitoneal
# [15] = system: Staphylococcus aureus; test: Antimicrobial activity against log-phase methicillin-resistant Staphylococcus aureus HUSA 304 by M7-A6 method in presence of 50 mg/L calcium ions; assay type: functional
# [16] = fT>MIC in methicillin-resistant Staphylococcus aureus HU 304 infected in Wistar rat at 70 mg/kg/day, ip for 7 days; assay type: functional; conditions: route intraperitoneal
# [17] = Cmax in tissue cage fluid of Wistar rat infected with methicillin-resistant Staphylococcus aureus HUSA 304 at 70 mg/kg/day, ip; assay type: ADME, organism-based, Interstitial fluid; parameters: dose 70 mg/kg/day, route intraperitoneal
# [18] = AUC (0 to infinity) in tissue cage fluid of Wistar rat infected with methicillin-resistant Staphylococcus aureus HUSA 304 at 100 mg/kg/day, ip; assay type: ADME, organism-based; parameters: dose 100 mg/kg/day, time infinity, route intraperitoneal
# [19] = Cmax in serum of Wistar rat infected with methicillin-resistant Staphylococcus aureus HUSA 304 at 100 mg/kg/day, ip for 7 days; assay type: ADME, organism-based; parameters: dose 100 mg/kg/day, route intraperitoneal
# [20] = AUC (0 to 24 hrs) in serum of human infected with methicillin-resistant Staphylococcus aureus HUSA 304 at 10 mg/kg/day, […]; assay type: ADME, organism-based; parameters: dose 10 mg/kg/day, time < 24 hr
# [21] = system: Staphylococcus aureus; test: Antimicrobial activity against log-phase methicillin-resistant Staphylococcus aureus HUSA 304 assessed as resistant bacteria in tissue cage fluid selected on 1 to 5 ug/ml of compound measured on day 8 post treatment in presence of 50 mg/L calcium ions; assay type: functional, organism-based
# [22] = Cmax in tissue cage fluid of Wistar rat infected with methicillin-resistant Staphylococcus aureus HUSA 304 at 45 mg/kg/day, ip; assay type: ADME, organism-based, Interstitial fluid; parameters: dose 45 mg/kg/day, route intraperitoneal
# [23] = fT>MIC in methicillin-resistant Staphylococcus aureus HU 304 infected in Wistar rat at 100 mg/kg/day, ip for 7 days; assay type: functional; conditions: route intraperitoneal
# [24] = Cmax in serum of human infected with methicillin-resistant Staphylococcus aureus HUSA 304 at 8 mg/kg/day, […]; assay type: ADME, organism-based; parameters: dose 8 mg/kg/day, route intraperitoneal
# [25] = system: Staphylococcus aureus; test: Antimicrobial activity against methicillin-resistant Staphylococcus aureus HUSA 304 infected in Wistar rat assessed as decrease in bacterial load in tissue cage fluid at 100 mg/kg/day, ip administered for 7 days measured on day 11 post treatment in presence of 50 mg/L calcium ions; assay type: functional; conditions: route intraperitoneal
# [26] = Ratio of Cmax in tissue cage fluid of Wistar rat infected with methicillin-resistant Staphylococcus aureus HUSA 304 at 100 mg/kg/day, ip to MIC for methicillin-resistant Staphylococcus aureus HUSA 304; assay type: functional; conditions: route intraperitoneal
# [27] = Cmax in serum of human infected with methicillin-resistant Staphylococcus aureus HUSA 304 at 6 mg/kg/day, […]; assay type: ADME, organism-based; parameters: dose 6 mg/kg/day
# [28] = Ratio of AUC (0 to infinity) in tissue cage fluid of Wistar rat infected with methicillin-resistant Staphylococcus aureus HUSA 304 at 70 mg/kg/day, ip to MIC for methicillin-resistant Staphylococcus aureus HUSA 304; assay type: functional; conditions: route intraperitoneal
# [29] = Ratio of Cmax in tissue cage fluid of Wistar rat infected with methicillin-resistant Staphylococcus aureus HUSA 304 at 70 mg/kg/day, ip to MIC for methicillin-resistant Staphylococcus aureus HUSA 304; assay type: functional; conditions: route intraperitoneal
# [30] = AUC (0 to 24 hrs) in serum of human infected with methicillin-resistant Staphylococcus aureus HUSA 304 at 8 mg/kg/day, […]; assay type: ADME, organism-based; parameters: dose 8 mg/kg/day, time < 24 hr
# [31] = system: Staphylococcus aureus; test: Bactericidal activity against stationary-phase methicillin-resistant Staphylococcus aureus HUSA 304 after 24 hrs by time kill analysis; assay type: functional; conditions: HUSA 304, 24 h
# [32] = AUC (0 to infinity) in serum of Wistar rat infected with methicillin-resistant Staphylococcus aureus HUSA 304 at 100 mg/kg/day, ip for 7 days; assay type: ADME, organism-based; parameters: dose 100 mg/kg/day, time infinity, route intraperitoneal
# [33] = system: Staphylococcus aureus; test: Antimicrobial activity against methicillin-resistant Staphylococcus aureus HUSA 304 infected in Wistar rat assessed as decrease in bacterial load in tissue cage fluid at 100 mg/kg/day, ip administered for 7 days measured on day 8 post treatment in presence of 50 mg/L calcium ions; assay type: functional; conditions: route intraperitoneal
# [34] = Ratio of AUC (0 to infinity) in tissue cage fluid of Wistar rat infected with methicillin-resistant Staphylococcus aureus HUSA 304 at 100 mg/kg/day, ip to MIC for methicillin-resistant Staphylococcus aureus HUSA 304; assay type: functional; conditions: route intraperitoneal
# [35] = fT>MIC in methicillin-resistant Staphylococcus aureus HU 304 infected in Wistar rat at 45 mg/kg/day, ip for 7 days; assay type: functional; conditions: route intraperitoneal
# [36] = system: Staphylococcus aureus; test: Bactericidal activity against log-phase methicillin-resistant Staphylococcus aureus HUSA 304 after 24 hrs by time kill analysis; assay type: functional; conditions: HUSA 304, 24 h
# [37] = AUC (0 to infinity) in serum of Wistar rat infected with methicillin-resistant Staphylococcus aureus HUSA 304 at 70 mg/kg/day, ip for 7 days; assay type: ADME, organism-based; parameters: dose 70 mg/kg/day, time infinity, route intraperitoneal
# [38] = system: Staphylococcus aureus; test: Antimicrobial activity against log-phase methicillin-resistant Staphylococcus aureus HUSA 304 assessed as resistant bacteria in tissue cage fluid selected on 1 to 5 ug/ml of compound measured on day 11 post treatment in presence of 50 mg/L calcium ions; assay type: functional, organism-based
# [39] = Cmax in serum of Wistar rat infected with methicillin-resistant Staphylococcus aureus HUSA 304 at 45 mg/kg/day, ip for 7 days; assay type: ADME, organism-based; parameters: dose 45 mg/kg/day, route intraperitoneal
# [40] = Cmax in serum of human infected with methicillin-resistant Staphylococcus aureus HUSA 304 at 10 mg/kg/day, […]; assay type: ADME, organism-based; parameters: dose 10 mg/kg/day, route intraperitoneal
# [41] = system: Staphylococcus aureus; test: Antimicrobial activity against log-phase methicillin-resistant Staphylococcus aureus HUSA 304 assessed as resistant bacteria on coverslip selected on 1 to 5 ug/ml of compound measured on day 11 post treatment in presence of 50 mg/L calcium ions; assay type: functional, organism-based
smiles,measurement,setting,value
CO[C@H]1/C=C/O[C@@]2(C)Oc3c(C)c(O)c4c(O)c(c(/C=N/N5CCN(C)CC5)c(O)c4c3C2=O)NC(=O)/C(C)=C\C=C\[C@H](C)[C@H](O)[C@@H](C)[C@@H](O)[C@@H](C)[C@H](OC(C)=O)[C@@H]1C [RIFAMPIN],MIC,[1],0.03 µg/mL
same,log10cfu,[2],1.1
same,log10cfu,[3],1.36
same,MBC,[4],0.5 µg/mL
same,MBC,[5],> 8 µg/mL
CCCCCCCCCC(=O)N[C@@H](Cc1c[nH]c2ccccc12)C(=O)N[C@H](CC(N)=O)C(=O)N[C@@H](CC(=O)O)C(=O)N[C@@H]1C(=O)NCC(=O)N[C@@H](CCCN)C(=O)N[C@@H](CC(=O)O)C(=O)N[C@H](C)C(=O)N[C@@H](CC(=O)O)C(=O)NCC(=O)N[C@H](CO)C(=O)N[C@@H]([C@H](C)CC(=O)O)C(=O)N[C@@H](CC(=O)c2ccccc2N)C(=O)O[C@@H]1C,AUC at 24 h,[6],730 µg·h/mL
same,AUC(0-inf),[7],830 µg·h/mL
same,RatioAUC/MIC,[8],795
same,AUC(0-inf),[9],795 µg·h/mL
same,MIC,[10],1 µg/mL
same,Cmax,[11],128 µg/mL
same,Cmax,[12],40 µg/mL
same,AUC(0-inf),[13],953 µg·h/mL
same,Ratio,[14],26
same,MIC,[15],1 µg/mL
same,fT>MIC,[16],100%
same,Cmax,[17],34 µg/mL
same,AUC(0-inf),[18],1100 µg·h/mL
same,Cmax,[19],140 µg/mL
same,AUC at 24 h,[20],1010 µg·h/mL
same,Activity,[21],Active
same,Cmax,[22],26 µg/mL
same,fT>MIC,[23],100%
same,Cmax,[24],106 µg/mL
same,log10cfu,[25],2.57
same,Ratio,[26],40
same,Cmax,[27],95 µg/mL
same,RatioAUC/MIC,[28],953
same,Ratio,[29],34
same,AUC at 24 h,[30],773 µg·h/mL
same,MBC,[31],24 µg/mL
same,AUC(0-inf),[32],1200 µg·h/mL
same,log10cfu,[33],2.26
same,RatioAUC/MIC,[34],1100
same,fT>MIC,[35],100%
same,MBC,[36],4 µg/mL
same,AUC(0-inf),[37],984 µg·h/mL
same,Activity,[38],Active
same,Cmax,[39],103 µg/mL
same,Cmax,[40],130 µg/mL
same,Activity,[41],Active
